“And” between values parts separate entries of the source, which are not always exact repeats. Identical values can stand only once. Like-named read-outs stand apart in the source and are kept apart here.
How the values were obtained:
[1] = system: HL-60-S cells; test: HL-60-S cell proliferation assay; format: cell-based, human
Source text: (§1) The MDR HL-60-RV and HL-60-R8 cells were developed in Melvin S. Center's laboratory (Kansas State University) and similarly maintained in RPMI 1640 medium in the absence of drugs (Marsh W, et al, Cancer Res 46: 4053-4057, 1986; McGrath T et al, and Center M S: Biochem Biophys Res Commun 145: 1171-1176, 1987; Marsh W and Center M S: Cancer Res 47: 5080-5086, 1987; McGrath T, et al, Biochem Pharmacol 38: 3611-3619, 1989; Marquardt D, et al, Cancer Res 50: 1426-1430, 1990; Marquardt D and Center M S: J Natl Cancer Inst 83: 1089-1109, 1991; Krishnamachary N and Center M S; Cancer Res 53: 3658-3661, 1993). Every 4 weeks, these HL-60-RV and HL-60-R8 sublines were exposed to 41 nM DAU for 48 h to stabilize their MDR phenotype. This concentration of DAU, which is not cytotoxic to MDR HL-60 sublines, was removed from the culture medium at least 48 h before experimentation. […] RFs were determined by dividing the IC50 of the MDR cells by that of the sensitive WT parent cell line.

[2] = system: HL-60-RV cells; test: cells; format: cell-based, human; conditions: for IC50: read-out: IC50, decrease of HL-60-RV cell viability
Source text: as §1

[3] = system: L1210 cells; test: RNA synthesis (3H-uridine incorporation) in L1210 cells; format: cell-based, murine
Protocol: FIG. 16. Comparison of the concentration-dependent inhibitions of RNA synthesis by the TT analog TT2 (●) and DAU (∘) in L1210 cells in vitro. […] RNA synthesis in vehicle-treated control cells was 47,117±3,204 cpm (100±7%; striped area). The blank value (1,746±155 cpm) for cells incubated and pulse-labeled at 2° C. with 2 μCi of ^3H-uridine has been substracted from the results.
Except when otherwise specified, the cells were incubated at 37° C. for 90 min in the presence or absence of drugs and then pulse-labeled for an additional 30 min with 1 μCi of [methyl-^3H]thymidine (50 Ci/mmol; Amersham Corp., Arlington Heights, Ill.) to estimate the rate of DNA synthesis. […] After drying the filters, the radioactivity bound to the acid-precipitable material was determined by liquid scintillation counting (LSC) in 10 ml of Bio-Safe NA (Researeh Products International Corp., Mount Prospect, Ill.).

[4] = system: HL-60-R8 cells; test: DNA cleavage in HL-60-R8 cells; format: cell-based, human; conditions: HL-60-R8, 24 h
Protocol: FIG. 23. Comparison of the concentration-dependent inductions of DNA cleavage by DAU (open symbols in A) and TT2 (closed symbols in B) at 24 h in HL-60-S (circles), HL-60-RV (squares) and HL-60-R8 (triangles) cells containing ^3H-prelabeled DNA in vitro. Results are expressed as [cpm in supernatant/cpm in supernatant+pellet]×100 at 24 h. For untreated controls (14.7±1.7% DNA fragmentation, striped areas), the supernatant (DNA fragments) is 12,815±1,358 cpm and the pellet (intact DNA) is 74,406±9,078 cpm.
as §1, with “phenotype.” for “phenotype. This concentration of DAU, which is not cytotoxic to MDR HL-60 sublines, was removed from the culture medium at least 48 h before experimentation.”, “line. […]” for “line.”

[5] = HL-60-RV and HL-60-R8 vs HL-60-S, day 2
[6] = HL-60-RV and HL-60-R8 vs HL-60-S, day 4

Structure (SMILES)	times TT2 inhibits tumor cell growth less effectively than DAU ([1]; HL-60-S) [times]	IC50 ([1]; HL-60-S, HL-60-RV and HL-60-R8, day 4, read-out: IC50 values, inhibition of cell proliferation, range over the three lines) [nM]	IC50 ([1]; day 2, read-out: IC50, inhibition of HL-60-S cell proliferation) [nM]	IC50 ([1]; day 4, read-out: IC50, inhibition of HL-60-S cell proliferation) [nM]	RFs, cell viability (IC50 of MDR cells / IC50 of WT HL-60-S) [2, 5]	RFs, cell viability (IC50 of MDR cells / IC50 of WT HL-60-S) [2, 6]	IC50 ([2]; day 2) [nM]	IC50 ([2]; day 4) [nM]	IC50 ([3]; 3 h drug + 1 h pulse-labeling, read-out: IC50, inhibition of RNA synthesis in L1210 cells)	reduction of the peak of maximal DNA cleavage relative to HL-60-S cells [4] [%]	IC50 ([1]; Homo sapiens, 48 h, read-out: IC50, inhibition of HL-60-S cell proliferation) [nM]	IC50 ([1]; Homo sapiens, 96 h, read-out: IC50, inhibition of HL-60-S cell proliferation) [nM]	times less potent as cytotoxic agent in MDR than in WT HL-60 cells ([2]; HL-60-RV and HL-60-R8 vs HL-60-S)	IC50 ([2]; Homo sapiens, 96 h) [nM]	times DAU inhibits RNA synthesis more effectively than TT2 ([3]; L1210)
COC1=CC(=O)C2=C(C1=O)C1C3=C(C(=O)C=CC3=O)C2c2ccccc21 (stereo not drawn) [TT2, 2-Methoxy-9,10-dihydro-9,10-[1′,2′]benzenoanthracene-1,4,5,8-tetraone]	33	260 to 300	400	300	0.9-1.2	1.5	1100	340	6 µM and ~6 µM	35	–	–	–	–	–
COc1cccc2c1C(=O)c1c(O)c3c(c(O)c1C2=O)C[C@@](O)(C(C)=O)C[C@@H]3O[C@H]1C[C@H](N)[C@H](O)[C@H](C)O1 [DAU, daunomycin, reference compound]	–	–	–	–	23.8-31.3	25.3-30.0	–	–	–	60	14	9	about 28 times	450	about 7.5 times

Source: US6828450B2, “Triptycene analogs” (Kansas State University Research Foundation, priority 2000, dated 2004)
